Activity calls are given as the source filed them.
Experiments:
[1] = target: Sphingosine 1-phosphate receptor 2 (Homo sapiens, UniProt O95136); experiment: Dose Response Cell Based Assay for Antagonists of the S1P2 Receptor. [Related pubchem assays: 856, 736 ]; assay type: functional
Protein Tat = Protein Tat (Human immunodeficiency virus type 1 group M subtype B (isolate HXB2)(HIV-1), UniProt P04608); assay type: functional;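 note: tat binding to TAR RNA read out by fluorescence polarization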
Large T antigen = Large T antigen (Simian virus 40, UniProt P03070); assay type: functional, Betapolyomavirus macacae;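 note: Confirmatory-stage PubChem screen for compounds that inhibit SV40 T antigen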
Chain of Large T antigen (P03070 whole entry): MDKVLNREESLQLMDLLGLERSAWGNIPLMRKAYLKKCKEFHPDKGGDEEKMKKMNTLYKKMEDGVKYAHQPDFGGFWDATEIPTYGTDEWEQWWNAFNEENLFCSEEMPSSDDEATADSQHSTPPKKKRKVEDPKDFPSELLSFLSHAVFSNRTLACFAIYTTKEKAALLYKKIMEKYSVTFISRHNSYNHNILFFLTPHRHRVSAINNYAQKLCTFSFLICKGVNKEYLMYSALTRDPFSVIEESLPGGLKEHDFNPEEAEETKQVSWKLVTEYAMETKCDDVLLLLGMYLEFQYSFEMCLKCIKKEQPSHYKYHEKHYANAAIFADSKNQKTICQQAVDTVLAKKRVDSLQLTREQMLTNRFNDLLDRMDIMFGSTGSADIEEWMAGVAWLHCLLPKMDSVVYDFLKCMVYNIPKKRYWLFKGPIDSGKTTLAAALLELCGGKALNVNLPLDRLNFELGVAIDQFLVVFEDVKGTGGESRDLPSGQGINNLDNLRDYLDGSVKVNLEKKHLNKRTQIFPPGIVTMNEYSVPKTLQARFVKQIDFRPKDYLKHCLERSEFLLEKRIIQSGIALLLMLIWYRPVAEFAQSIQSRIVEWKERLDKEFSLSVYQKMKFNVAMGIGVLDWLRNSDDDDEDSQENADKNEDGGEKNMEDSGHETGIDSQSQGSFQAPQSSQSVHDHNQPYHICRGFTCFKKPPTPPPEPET

Ephrin type-A receptor 4 = Ephrin type-A receptor 4 (Mus musculus, UniProt Q03137); experiment: EphA4 ligand-binding antagonists – biochemical, colorimetric, mouse EphA4, primary screen (AID 689); assay type: functional
Chain of Ephrin type-A receptor 4 (Q03137 whole entry): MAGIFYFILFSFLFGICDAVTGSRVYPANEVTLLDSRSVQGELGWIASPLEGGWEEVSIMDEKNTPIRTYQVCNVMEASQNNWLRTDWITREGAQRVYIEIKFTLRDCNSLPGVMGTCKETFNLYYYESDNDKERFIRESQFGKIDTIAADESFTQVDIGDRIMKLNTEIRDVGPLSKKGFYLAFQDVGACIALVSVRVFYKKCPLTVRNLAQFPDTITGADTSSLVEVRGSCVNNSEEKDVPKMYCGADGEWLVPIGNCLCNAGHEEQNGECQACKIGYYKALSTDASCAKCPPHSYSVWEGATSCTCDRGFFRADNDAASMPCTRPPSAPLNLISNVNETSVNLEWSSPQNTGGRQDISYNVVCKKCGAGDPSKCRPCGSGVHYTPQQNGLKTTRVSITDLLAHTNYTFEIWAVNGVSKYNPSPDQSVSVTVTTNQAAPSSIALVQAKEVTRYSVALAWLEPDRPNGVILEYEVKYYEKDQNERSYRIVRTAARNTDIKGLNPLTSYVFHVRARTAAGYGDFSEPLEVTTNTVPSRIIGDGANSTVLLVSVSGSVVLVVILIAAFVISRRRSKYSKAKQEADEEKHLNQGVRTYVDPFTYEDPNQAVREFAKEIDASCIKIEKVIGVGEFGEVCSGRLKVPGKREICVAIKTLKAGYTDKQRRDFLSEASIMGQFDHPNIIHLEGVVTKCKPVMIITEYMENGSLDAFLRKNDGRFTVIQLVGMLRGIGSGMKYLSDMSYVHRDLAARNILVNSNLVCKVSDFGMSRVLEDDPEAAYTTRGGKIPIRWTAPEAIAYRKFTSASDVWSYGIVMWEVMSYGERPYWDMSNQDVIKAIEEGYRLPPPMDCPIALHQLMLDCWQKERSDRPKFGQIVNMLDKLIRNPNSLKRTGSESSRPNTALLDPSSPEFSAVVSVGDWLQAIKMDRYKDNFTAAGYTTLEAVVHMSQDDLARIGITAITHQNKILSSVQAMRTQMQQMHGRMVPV

Cytochrome P450 2C9 = Cytochrome P450 2C9 (Homo sapiens, UniProt P11712)
Chain of Cytochrome P450 2C9 (P11712 whole entry): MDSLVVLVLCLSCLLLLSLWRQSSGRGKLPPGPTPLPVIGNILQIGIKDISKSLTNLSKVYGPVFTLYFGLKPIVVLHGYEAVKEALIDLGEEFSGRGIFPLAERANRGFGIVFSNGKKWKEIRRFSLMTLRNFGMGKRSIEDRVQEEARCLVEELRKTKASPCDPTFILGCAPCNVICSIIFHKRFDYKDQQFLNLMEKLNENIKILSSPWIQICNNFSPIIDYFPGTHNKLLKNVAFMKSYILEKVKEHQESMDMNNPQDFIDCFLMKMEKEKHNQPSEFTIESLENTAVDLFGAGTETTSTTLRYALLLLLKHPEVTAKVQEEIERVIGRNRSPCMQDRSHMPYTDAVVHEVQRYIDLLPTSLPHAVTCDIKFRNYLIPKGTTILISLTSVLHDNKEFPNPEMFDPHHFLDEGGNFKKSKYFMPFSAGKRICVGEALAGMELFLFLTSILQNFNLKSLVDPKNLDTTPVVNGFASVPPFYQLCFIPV

Estrogen receptor beta [2] = target: T1, Estrogen receptor beta (Homo sapiens, UniProt Q92731); experiment: blockers of SRC-3 recruitment to ERβ – biochemical, ELISA, streptavidin-HRP readout, orthogonal assay, confirmation (AID 1060)
T1 sequence (Q92731 whole entry, the tested form may be a part): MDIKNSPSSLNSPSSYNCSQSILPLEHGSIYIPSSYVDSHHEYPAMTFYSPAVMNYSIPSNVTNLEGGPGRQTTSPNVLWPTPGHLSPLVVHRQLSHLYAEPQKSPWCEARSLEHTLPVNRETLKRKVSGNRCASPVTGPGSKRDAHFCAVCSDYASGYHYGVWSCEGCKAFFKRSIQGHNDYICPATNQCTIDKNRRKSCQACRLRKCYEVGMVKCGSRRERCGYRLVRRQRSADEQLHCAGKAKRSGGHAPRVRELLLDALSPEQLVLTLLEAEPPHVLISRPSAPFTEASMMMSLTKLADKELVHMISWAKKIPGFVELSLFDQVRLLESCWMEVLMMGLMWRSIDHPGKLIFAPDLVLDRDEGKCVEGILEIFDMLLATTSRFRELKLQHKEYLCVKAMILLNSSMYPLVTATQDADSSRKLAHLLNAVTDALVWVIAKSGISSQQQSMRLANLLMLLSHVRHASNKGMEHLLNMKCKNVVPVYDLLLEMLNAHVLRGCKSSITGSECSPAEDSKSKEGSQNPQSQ

[3] = target: T2, Carboxy-terminal domain RNA polymerase II polypeptide A small phosphatase 1 (Homo sapiens, UniProt Q9GZU7); experiment: CTDSP1 inhibitors, concentration-response, biochemical, absorbance readout, ultra-high-throughput screen actives (AID 540297); assay type: functional
T2 sequence (Q9GZU7 whole entry): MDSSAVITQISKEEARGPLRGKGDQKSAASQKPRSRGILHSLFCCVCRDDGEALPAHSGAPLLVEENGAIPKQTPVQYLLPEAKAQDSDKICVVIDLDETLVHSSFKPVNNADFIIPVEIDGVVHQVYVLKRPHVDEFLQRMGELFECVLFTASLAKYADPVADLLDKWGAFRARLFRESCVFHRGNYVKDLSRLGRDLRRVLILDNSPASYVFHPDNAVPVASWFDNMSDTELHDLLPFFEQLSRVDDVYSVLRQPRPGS

[4] = target: T3, Rac GTPase-activating protein 1 (Homo sapiens, UniProt Q9H0H5); experiment: blockers of MgcRacGAP-driven Rac1 GTP hydrolysis – biochemical, ADP Hunter fluorescence, primary and confirmatory, confirmation (AID 624330); assay type: functional
T3 sequence (Q9H0H5 whole entry): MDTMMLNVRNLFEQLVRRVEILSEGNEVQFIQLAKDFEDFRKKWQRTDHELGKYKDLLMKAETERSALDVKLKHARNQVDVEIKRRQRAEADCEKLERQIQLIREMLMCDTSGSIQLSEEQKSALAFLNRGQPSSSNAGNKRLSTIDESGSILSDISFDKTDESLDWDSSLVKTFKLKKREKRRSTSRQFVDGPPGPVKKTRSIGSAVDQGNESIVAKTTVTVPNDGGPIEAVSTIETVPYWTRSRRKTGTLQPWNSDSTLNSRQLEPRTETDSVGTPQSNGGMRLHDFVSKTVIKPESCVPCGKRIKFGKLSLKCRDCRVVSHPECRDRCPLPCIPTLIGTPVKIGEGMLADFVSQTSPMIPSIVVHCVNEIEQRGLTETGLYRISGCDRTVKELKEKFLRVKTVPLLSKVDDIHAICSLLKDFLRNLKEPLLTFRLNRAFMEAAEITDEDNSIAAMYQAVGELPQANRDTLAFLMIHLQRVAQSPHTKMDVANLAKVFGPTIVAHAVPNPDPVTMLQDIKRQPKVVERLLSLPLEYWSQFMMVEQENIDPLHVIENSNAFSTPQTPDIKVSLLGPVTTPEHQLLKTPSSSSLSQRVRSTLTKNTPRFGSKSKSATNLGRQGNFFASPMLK

[5] = target: Induced myeloid leukemia cell differentiation protein Mcl-1 (Homo sapiens, UniProt Q07820); assay type: functional
Chain of Induced myeloid leukemia cell differentiation protein Mcl-1 (Q07820 whole entry): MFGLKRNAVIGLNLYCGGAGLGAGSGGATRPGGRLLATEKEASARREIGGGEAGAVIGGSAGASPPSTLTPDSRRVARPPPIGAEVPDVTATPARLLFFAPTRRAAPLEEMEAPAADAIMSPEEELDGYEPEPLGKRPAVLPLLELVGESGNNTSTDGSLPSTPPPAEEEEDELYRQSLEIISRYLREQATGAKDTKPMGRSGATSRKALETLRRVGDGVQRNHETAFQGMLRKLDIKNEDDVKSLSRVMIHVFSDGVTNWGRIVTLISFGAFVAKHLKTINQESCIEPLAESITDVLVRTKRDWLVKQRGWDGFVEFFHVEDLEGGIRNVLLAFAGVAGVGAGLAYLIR

[6] = target: Eukaryotic translation initiation factor 4E (Mus musculus, UniProt P63073); experiment: blockers of eIF4G binding by eIF4E – biochemical, TR-FRET, dose response (AID 855); assay type: functional;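 note: potency for disrupting eIF4E binding to eIF4GI seen as loss of FRET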
Chain of Eukaryotic translation initiation factor 4E (P63073 whole entry): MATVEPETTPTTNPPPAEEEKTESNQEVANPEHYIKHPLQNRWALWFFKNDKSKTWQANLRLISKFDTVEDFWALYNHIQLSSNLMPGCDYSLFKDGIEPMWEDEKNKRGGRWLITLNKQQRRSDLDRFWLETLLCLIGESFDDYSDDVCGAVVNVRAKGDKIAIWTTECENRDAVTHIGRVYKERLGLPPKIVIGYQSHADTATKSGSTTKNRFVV

[7] = target: DNA (cytosine-5)-methyltransferase 1 (Homo sapiens, UniProt P26358); experiment: inhibition of DNA methylation by DNMT1 – biochemical, fluorescent molecular beacon, confirmation (AID 602386); assay type: functional
Estrogen receptor beta [8] = target: T1, Estrogen receptor beta
[9] = viability inhibitors of stage V gametocytes – luminescence, dose response (AID 1117278); assay type: functional, cell-based;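 note: gametocytes exposed to compound for 24 hours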
[10] = viability loss in human Jurkat cells – cell-based, luminescence, cytotoxicity control for P. falciparum gametocyte viability project, dose response (AID 1117277); assay type: functional;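 note: potency reflects loss of cellular ATP meaning fewer viable cells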
[11] = target: T4, Calpain-2 catalytic subunit (Sus scrofa, UniProt P43367); experiment: m-calpain protease blockers, concentration series – biochemical, fluorogenic peptide substrate, dose response (AID 1420); assay type: functional
T4 sequence (P43367 whole entry): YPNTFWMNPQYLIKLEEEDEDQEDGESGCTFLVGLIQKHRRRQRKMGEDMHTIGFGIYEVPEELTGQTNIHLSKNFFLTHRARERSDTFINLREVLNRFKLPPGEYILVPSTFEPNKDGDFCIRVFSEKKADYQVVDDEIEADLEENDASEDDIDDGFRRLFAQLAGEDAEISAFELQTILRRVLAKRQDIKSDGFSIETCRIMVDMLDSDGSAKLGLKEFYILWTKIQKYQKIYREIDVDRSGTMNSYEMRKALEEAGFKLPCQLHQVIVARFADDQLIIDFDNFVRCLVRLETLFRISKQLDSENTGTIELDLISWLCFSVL

[12] = HIV-1 Vif–A3G interaction blockers – biochemical, TR-FRET, GST-Vif 1-94, biotin-A3G peptide, dose response retest, primary screen (AID 1117319); assay type: functional;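 note: TR-FRET signal of purified GST-Vif binding a biotinylated A3G peptide; inhibitors lower the FRET signal by blocking Vif and A3G binding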
[13] = viability of uninfected HEp-2 cells – cell-based, HTS, cytotoxicity control for RSV inhibitor project, dose response (AID 2410); assay type: functional; conditions: human respiratory syncytial virus
[14] = P. falciparum Dd2 growth inhibitors, dose response, SYBR Green, cherry-picked samples (AID 1159567); assay type: functional, cell-based
Paired box protein Pax-8 = Paired box protein Pax-8 (Homo sapiens, UniProt Q06710); experiment: PAX8 transcriptional activity inhibition in RMG-I – RMG-I cells, luciferase, cherry-pick, dose response (AID 687027); assay type: functional, cell-based;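 note: luciferase reporter driven by Pax8 target thyroperoxidase promoter measured by SteadyGlo luminescence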
Chain of Paired box protein Pax-8 (Q06710 whole entry): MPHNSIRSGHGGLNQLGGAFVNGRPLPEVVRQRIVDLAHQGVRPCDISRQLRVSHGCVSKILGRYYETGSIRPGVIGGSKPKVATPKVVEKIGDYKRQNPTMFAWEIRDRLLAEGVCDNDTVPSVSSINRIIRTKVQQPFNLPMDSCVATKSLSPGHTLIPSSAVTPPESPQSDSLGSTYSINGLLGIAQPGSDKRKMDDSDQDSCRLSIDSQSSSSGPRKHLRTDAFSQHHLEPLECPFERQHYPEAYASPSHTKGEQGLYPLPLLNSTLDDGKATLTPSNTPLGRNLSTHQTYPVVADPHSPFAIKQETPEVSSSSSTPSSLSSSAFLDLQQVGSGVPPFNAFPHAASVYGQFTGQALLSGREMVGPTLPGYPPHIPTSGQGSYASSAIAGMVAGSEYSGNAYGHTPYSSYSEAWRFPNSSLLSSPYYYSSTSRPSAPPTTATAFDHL

[15] = growth inhibition of PfATP4-mutant resistant parasites – NITD609-resistant line, SYBR Green, dry powder, dose response (AID 1159571); assay type: functional, cell-based;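 note: parasites synchronized at ring stage by sorbitol before testing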
[16] = Dd2 malaria parasite growth inhibition potency – SYBR Green, dry powder samples, dose response (AID 1159566); assay type: functional, cell-based;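 note: potency for growth inhibition with lower SYBR green DNA signal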
[17] = growth inhibition of yeast DHODH-expressing 3D7 parasites – SYBR Green, dry powder samples, dose response (AID 1159570); assay type: functional, cell-based;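 note: parasite growth measured after 72 hours of compound exposure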
[18] = OVCAR8 cell viability loss – plate reader, dry powder samples, PAX8 project, dose response (AID 743197); assay type: functional, cell-based; conditions: OVCAR-8
[19] = SNU-C1 cell viability reduction, dose response, CellTiter-Glo luminescence (AID 1117323); assay type: functional, cell-based
[20] = Reduced DLD-1 viability, concentration-response, CellTiter-Glo luminescence (AID 1117352); assay type: functional
[21] = CellTiter-Glo luminescence survival assay, SW480 colon tumor line, concentration-response curve, half-maximal inhibitory concentration (AID 1117338); assay type: functional
[22] = cytotoxicity toward HT-29 cells – cell-based, CellTiter-Glo luminescence, IC50, dose response (AID 1117330); assay type: functional
Cytochrome P450 3A4 = Cytochrome P450 3A4 (Homo sapiens, UniProt P08684);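 note: CYP3A4 tested as one member of a cytochrome P450 panel screen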
Chain of Cytochrome P450 3A4 (P08684 whole entry): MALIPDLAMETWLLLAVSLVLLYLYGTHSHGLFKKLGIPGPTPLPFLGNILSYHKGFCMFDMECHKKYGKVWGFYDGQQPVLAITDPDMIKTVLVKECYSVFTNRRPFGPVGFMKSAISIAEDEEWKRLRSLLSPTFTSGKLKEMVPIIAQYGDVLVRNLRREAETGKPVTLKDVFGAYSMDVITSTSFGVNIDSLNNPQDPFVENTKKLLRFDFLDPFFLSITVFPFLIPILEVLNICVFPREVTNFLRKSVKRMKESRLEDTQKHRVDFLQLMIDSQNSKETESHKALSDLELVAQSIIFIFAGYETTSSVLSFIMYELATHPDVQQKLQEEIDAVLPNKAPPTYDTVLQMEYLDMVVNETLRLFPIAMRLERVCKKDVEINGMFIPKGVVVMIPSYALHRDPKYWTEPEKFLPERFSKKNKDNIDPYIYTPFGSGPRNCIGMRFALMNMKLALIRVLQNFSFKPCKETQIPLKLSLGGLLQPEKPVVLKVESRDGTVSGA

[23] = cytotoxicity toward Colo320 cells – cell-based, CellTiter-Glo luminescence, IC50, dose response (AID 1117334); assay type: functional; conditions: COLO 320
[24] = RKO cell viability reduction, dose response, CellTiter-Glo luminescence (AID 1117322); assay type: functional
[25] = cytotoxicity toward HCT116 cells – cell-based, CellTiter-Glo luminescence, IC50, dose response (AID 1117332); assay type: functional; conditions: HCT-116

Chain of Protein Tat (P04608 whole entry): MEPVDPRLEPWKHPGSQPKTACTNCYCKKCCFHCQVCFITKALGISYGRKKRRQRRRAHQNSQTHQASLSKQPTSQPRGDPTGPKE
Chain of Sphingosine 1-phosphate receptor 2 (O95136 whole entry): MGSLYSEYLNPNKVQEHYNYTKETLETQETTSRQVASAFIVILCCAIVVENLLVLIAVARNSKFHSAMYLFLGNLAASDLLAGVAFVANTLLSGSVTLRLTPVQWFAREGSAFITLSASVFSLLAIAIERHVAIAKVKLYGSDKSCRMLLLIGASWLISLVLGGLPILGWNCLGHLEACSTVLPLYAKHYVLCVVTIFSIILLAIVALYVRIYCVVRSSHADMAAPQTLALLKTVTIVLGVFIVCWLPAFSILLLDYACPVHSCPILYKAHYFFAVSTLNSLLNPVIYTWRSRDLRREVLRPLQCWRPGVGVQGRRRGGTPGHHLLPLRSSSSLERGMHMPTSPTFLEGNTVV

Which IC50 [1] does the source give for `COC(=O)c1sc2cc(C(F)(F)F)cnc2c1-c1cccs1` here?
Its IC50 is > 30 µM (not active).

With `CC1OC(OCC2OC(Oc3c(-c4ccc(O)cc4)oc4cc(O)cc(O)c4c3=O)C(O)C(O)C2O)C(O)C(O)C1O` (configuration not stated) as the compound, how does the IC50 (Protein Tat) read?
Its IC50 is > 100 µM (active).

What about the IC50 (Large T antigen) of the same compound?
The IC50 was 17.3 µM (active).

With `O=C(Nc1cccc2ccccc12)/C(=C/c1ccc([N+](=O)[O-])cc1)NC(=O)c1ccccc1` as the compound, how does the IC50 (Ephrin type-A receptor 4) read?
The IC50 was 11.4 µM (active).

And the AC50 (Cytochrome P450 2C9)?
Its AC50 is 5.01 µM (inconclusive).

Which results are given for `COc1ccc(Cc2nnc(NC(=O)Cc3cccs3)s2)cc1`?
IC50 (Ephrin type-A receptor 4): 13.6 µM (active); IC50 (Estrogen receptor beta [2]): 0.0725 µM (not active); IC50 [3]: 2.82 µM (active); IC50 [4]: 52 µM (active); IC50 [5]: 1.59 µM (active); IC50 [6]: 16.9 µM (active); IC50 [7]: 4.47 µM (active); IC50 (Estrogen receptor beta [8]): < 1.56 µM (active)

Which results are given for `CC(C(=O)Nc1ccccc1Oc1ccccc1)c1ccccc1` (configuration not stated)?
IC50 [9]: > 109 µM (inactive); IC50 [10]: > 83.2 µM (inactive); IC50 [11]: 19.8 µM (not active)

What does the source list for `O=C(Nc1ccc2c(c1)oc1ccccc12)c1cccnc1`?
IC50 [12]: > 100 µM (active); CC50 [13]: 46.2 µM (active)

For `O=C(CNC(=O)c1cccs1)OCC(=O)c1ccc2ccccc2c1`, which IC50 [12] is on record?
Its IC50 is > 100 µM (active).

For `COc1cccc(S(=O)(=O)N(C)C[C@@H]2OCc3ccccc3-c3c(n(C)c4ccccc34)C(=O)N([C@H](C)CO)C[C@@H]2C)c1`, which AC50 [14] is on record?
The AC50 was 0.832 µM (active).

What about the AC50 (Paired box protein Pax-8) of the same compound?
Its AC50 is 6.87 µM (active).

What about the AC50 [15] of the same compound?
Its AC50 is 0.46 µM (active).

And the AC50 [16]?
Its AC50 is 0.322 µM (active).

And the AC50 [17]?
The AC50 was 0.476 µM (active).

And the AC50 [18]?
The AC50 was 38.6 µM (active).

With `C[C@H]1CN([C@@H](C)CO)C(=O)Cc2cc(NC(=O)Nc3ccc(C(F)(F)F)cc3)ccc2O[C@@H]1CN(C)C(=O)Nc1ccc2c(c1)OCO2` as the compound, how does the AC50 [14] read?
Its AC50 is 1.51 µM (active).

What about the AC50 [15] of the same compound?
Its AC50 is 0.93 µM (active).

What about the AC50 [16] of the same compound?
Its AC50 is 0.9 µM (active).

And the AC50 [17]?
The AC50 was 1.11 µM (active).

What does the source list for `Cc1ccc(Cl)c(Nc2ccccc2C(=O)[O-])c1Cl.O.[Na+]` [MECLOFENAMATE SODIUM]?
IC50 [19]: > 20 µM (inactive); IC50 [20]: 15.1 µM (inactive); IC50 [21]: > 20 µM (inactive); IC50 [22]: > 20 µM (inactive); AC50 (Cytochrome P450 3A4): inconclusive; IC50 [23]: > 20 µM (inactive); IC50 [24]: > 20 µM (inactive); IC50 [25]: > 20 µM (inactive)

— ChEMBL document CHEMBL1201862, “PubChem BioAssay data set” (2004)
